Source: patent US10406097B2, “Extract of Arthrobacter agilis for use in particular in cosmetics” (priority 2013, dated 2019)

Test system: Normal human keratinocytes (NHK)
Test: Carbonylation test (OxyELISA) after UV/visible irradiation
Type: cell-based
Conditions: SBE 200 nM; Tocopherol acetate 20 μM; 2 hours contact; 120 kJ/m^2; P-value <0.01
Description: By following the same UV/visible irradiation protocol as the one used above for the comet assay, the rate of carbonylation of keratinocytes in the presence of SBE and tocopherol acetate was measured.
• Normal human keratinocytes (NHK) (T6)-10^6 cells/condition • Conditions: • 1% THF solvent control • SBE 200 nM • Tocopherol acetate 20 μM • Each condition is carried out in triplicate. • Contact with KHNs in different experimental conditions for 2 hours. • UVB/UVA/Visible irradiation at 120 kJ/m^2 of the cells placed in PBS by a Suntest CPS+ solar simulator (Atlas Material Testing Technology) at 4° C. Negative controls are maintained at 4° C. for the same duration as the irradiation. • Trypsination of the cells post irradiation. Rinsing of the iced PBS. Elimination of the PBS and immediate freezing of the cell pellets at −80° C. 2—Measurement of the Carbonylation • The proteins are extracted after lysis of the cells and their concentration is measured using the Bradford test. • The proteins are derived by 2,4-dinitrophenylhydrazine (DNPH), which binds to the carbonyl groups. • The carbonylation rate is then measured on ELISA plates (OxyELISA™ Oxidized Protein Quantitation Kit, Millipore) at 450 nm. Results

CC(=O)Oc1c(C)c(C)c2c(c1C)CCC(C)(CCC[C@H](C)CCC[C@H](C)CCCC(C)C)O2 (stereo partly shown) [tocopherol acetate]
increase of the rate of carbonylation of keratinocyte proteins after UV/visible irradiation: decreases significantly
